Experimental data from patent US10894807B2 (Siemens Medical Solutions USA, Inc., priority 2011, dated 2021).
Several values for one entry are separate records, joined by “and”; a condition that tells them apart may be missing. Equal entries are not always repeated.

Molecular target: human PSMA (Homo sapiens (Human), UniProt Q04609)
Test: Enzymatic assay for in vitro evaluation of PSMA inhibitors (fluorescent assay of PSMA activity, NAAG substrate, OPA detection of glutamate)
Assay type: biochemical
Details: for PSMA Blkg % (10 μM): compound at 10 μM

Sequence of human PSMA (Q04609 whole entry): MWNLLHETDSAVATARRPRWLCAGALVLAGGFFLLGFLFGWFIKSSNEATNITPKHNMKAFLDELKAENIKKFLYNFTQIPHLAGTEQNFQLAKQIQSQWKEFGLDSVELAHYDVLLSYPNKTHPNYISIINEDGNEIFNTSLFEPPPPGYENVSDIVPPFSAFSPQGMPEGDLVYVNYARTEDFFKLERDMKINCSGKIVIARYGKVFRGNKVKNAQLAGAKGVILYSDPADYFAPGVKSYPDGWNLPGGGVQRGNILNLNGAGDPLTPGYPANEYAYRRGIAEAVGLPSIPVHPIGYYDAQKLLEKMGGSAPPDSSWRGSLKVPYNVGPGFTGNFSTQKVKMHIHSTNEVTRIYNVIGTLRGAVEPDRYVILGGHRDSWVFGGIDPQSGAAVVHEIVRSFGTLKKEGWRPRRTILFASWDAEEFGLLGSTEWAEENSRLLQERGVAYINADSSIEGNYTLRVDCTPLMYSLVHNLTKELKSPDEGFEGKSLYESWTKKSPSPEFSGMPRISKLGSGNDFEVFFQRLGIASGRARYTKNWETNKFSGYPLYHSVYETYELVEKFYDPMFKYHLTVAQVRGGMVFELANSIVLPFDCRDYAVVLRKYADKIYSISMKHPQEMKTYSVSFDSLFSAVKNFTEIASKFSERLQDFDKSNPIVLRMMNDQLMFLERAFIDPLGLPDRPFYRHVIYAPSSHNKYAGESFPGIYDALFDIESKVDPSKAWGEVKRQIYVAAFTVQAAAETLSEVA

| Compound | Ki [nM] | PSMA Blkg % (1.0 μM) | PSMA Blkg % (10 μM) [%] |
| --- | --- | --- | --- |
| O=C(O)CC[C@H](NC(=O)N[C@@H](Cc1ccc(NC(=O)CCC(CCC(=O)Nc2ccc(C[C@H](NC(=O)N[C@@H](CCC(=O)O)C(=O)O)C(=O)O)cc2)NC(=O)c2ccc(-n3cc(CCCF)nn3)cc2)cc1)C(=O)O)C(=O)O [P280, (2S,2′S)-2,2′(((((1S,1′S)(((4-(4-(4-(3-Fluoropropyl)-1H-1,2,3-triazol-1-yl)-benzamido)-heptanedioyl)-bis(azanediyl))-bis(4,1-phenylene))-bis(1-carboxyethane-2,1-diyl))-bis(azanediyl))-bis(carbonyl))-bis(azanediyl))-dipentanedioic Acid] | 0.9 | – | – |
| O=C(O)CC[C@H](NC(=O)N[C@@H](CCCCNC(=O)CCC(CCC(=O)NCCCC[C@H](NC(=O)N[C@@H](CCC(=O)O)C(=O)O)C(=O)O)NC(=O)c1ccc(-n2cc(CCCF)nn2)cc1)C(=O)O)C(=O)O [P282, (3S,7S,25S,29S)-16-(4-(4-(3-Fluoropropyl)-1H-1,2,3-triazol-1-yl)benzamido)-5,13,19,27-tetraoxo-4,6,12,20,26,28-hexaazahentriacontane-1,3,7,25,29,31-hexacarboxylic Acid] | 1.1 | – | – |
| O=C(O)CC[C@H](NC(=O)N[C@@H](CCCCNC(=O)c1cc(NC(=O)Cn2cc(CCCF)nn2)cc(C(=O)NCCCC[C@H](NC(=O)N[C@@H](CCC(=O)O)C(=O)O)C(=O)O)c1)C(=O)O)C(=O)O [P283, (2S,2′S)-2,2′-(((((1S,1′S)-((5-(2-(4-(3-fluoropropyl)-1H-1,2,3-triazol-1-yl)acetamido)isophthaloyl)bis(azanediyl))bis(1-carboxypentane-5,1-diyl))bis(azanediyl))bis(carbonyl))bis(azanediyl))dipentanedioic Acid] | 0.9 | 98% | – |
| O=C(O)CC[C@H](NC(=O)N[C@@H](CC1CCN(C(=O)c2cc(C(=O)O)cc(-n3cc(CCCF)nn3)c2)CC1)C(=O)O)C(=O)O [P284, (S)-2-(3-((S)-1-Carboxy-2-(1-(3-carboxy-5-(4-(3-fluoropropyl)-1H-1,2,3-triazol-1-yl)benzoyl)piperidin-4-yl)ethyl)ureido)pentanedioic Acid] | – | 96% | – |
| O=C(O)CCC(NC(=O)N[C@@H](Cc1ccc(NC(=O)CCC(CCC(=O)Nc2ccc(CC(NC(=O)N[C@@H](CCC(=O)O)C(=O)O)C(=O)O)cc2)(CCC(=O)Nc2ccc(C[C@H](NC(=O)NC(CCC(=O)O)C(=O)O)C(=O)O)cc2)NC(=O)CCCCn2cc(CCCF)nn2)cc1)C(=O)O)C(=O)O (stereo partly drawn) [P285, (2S,2′S)-2,2′-(((((1S,1′S)-(((4-(3-((4-((S)-2-Carboxy-2-(3-((S)-1,3-dicarboxypropyl)ureido)ethyl)phenyl)amino)-3-oxopropyl)-4-(5-(4-(3-fluoropropyl)-1H-1,2,3-triazol-1-yl)pentanamido)heptanedioyl)bis(azanediyl))bis(4,1-phenylene))bis(1-carboxyethane-2,1-diyl))bis(azanediyl))bis(carbonyl))bis(azanediyl))dipentanedioic Acid] | 0.5 | – | – |
| O=C(O)CC[C@H](NC(=O)N[C@@H](CCCCNC(=O)c1cc(C(=O)N2CCN(C(=O)Nc3ccc(C[C@H](NC(=O)N[C@@H](CCC(=O)O)C(=O)O)C(=O)O)cc3)CC2)cc(-n2cc(CCCF)nn2)c1)C(=O)O)C(=O)O [P286, (S)-2-(3-((S)-1-Carboxy-2-(4-(4-(3-(((S)-5-carboxy-5-(3-((S)-1,3-dicarboxypropyl)ureido)pentyl)carbamoyl)-5-(4-(3-fluoropropyl)-1H-1,2,3-triazol-1-yl)benzoyl)piperazine-1-carboxamido)phenyl)ethyl)ureido)pentanedioic Acid] | 12.5 | 92% | – |
| O=C(O)CCC(NC(=O)N[C@@H](CCCCNC(=O)CCC(CCC(=O)NCCCC[C@H](NC(=O)NC(CCC(=O)O)C(=O)O)C(=O)O)(CCC(=O)NCCCC[C@H](NC(=O)NC(CCC(=O)O)C(=O)O)C(=O)O)NC(=O)c1ccc(-n2cc(CCCF)nn2)cc1)C(=O)O)C(=O)O (stereo partly drawn) [P287, (3S,7S,25S,29S)-16-(3-(((S)-5-Carboxy-5-(3-((S)-1,3-dicarboxypropyl)ureido)pentyl)amino)-3-oxopropyl)-16-(4-(4-(3-fluoropropyl)-1H-1,2,3-triazol-1-yl)benzamido)-5,13,19,27-tetraoxo-4,6,12,20,26,28-hexaazahentriacontane-1,3,7,25,29,31-hexacarboxylic Acid] | 1 | 95% | – |
| NCCOCCOCCOCCOCc1cn(-c2cc(C(=O)NCCCC[C@H](NC(=O)N[C@@H](CCC(=O)O)C(=O)O)C(=O)O)cc(C(=O)NCCCC[C@H](NC(=O)N[C@@H](CCC(=O)O)C(=O)O)C(=O)O)c2)nn1 [P288, (2S,2′S)-2,2′-(((((1S,1′S)-((5-(4-(13-Amino-2,5,8,11-tetraoxatridecyl)-1H-1,2,3-triazol-1-yl)isophthaloyl)bis(azanediyl))bis(1-carboxypentane-5,1-diyl))bis(azanediyl))bis(carbonyl))-bis(azanediyl))dipentanedioic Acid] | 9.7 | 85% | – |
| [N-]=[N+]=Nc1cc(C(=O)NCCCCCC(=O)N[C@@H](CCC(=O)O)C(=O)O)cc(C(=O)NCCCCCC(=O)N[C@@H](CCC(=O)O)C(=O)O)c1 [P289, (2S,2′S)-2,2′-((6,6′-((5-Azidoisophthaloyl)bis(azanediyl))bis(hexanoyl))-bis(azanediyl))dipentanedioic Acid] | – | 0% | – |
| O=C(O)CC[C@H](NC(=O)NCCCCCNC(=O)c1cc(C(=O)NCCCCCNC(=O)N[C@@H](CCC(=O)O)C(=O)O)cc(-n2cc(CCCF)nn2)c1)C(=O)O [P290, (2S,2′S)-2,2′-((((((5-(4-(3-Fluoropropyl)-1H-1,2,3-triazol-1-yl)isophthaloyl)bis(azanediyl))bis(pentane-5,1-diyl))bis(azanediyl))bis(carbonyl))-bis(azanediyl))dipentanedioic Acid] | – | 0% | – |
| O=C(O)CC[C@H](NC(=O)N[C@@H](Cc1ccc(NC(=O)CCC(CCC(=O)Nc2ccc(C[C@H](NC(=O)N[C@@H](CCC(=O)O)C(=O)O)C(=O)O)cc2)(CCC(=O)Nc2ccc(C[C@H](NC(=O)N[C@@H](CCC(=O)O)C(=O)O)C(=O)O)cc2)NC(=O)Cn2cc(CCCF)nn2)cc1)C(=O)O)C(=O)O [P291, (2S,2′S)-2,2′-(((((1S,1′S)-((((4S)-4-(3-((4-((2S)-2-Carboxy-2-(3-(1,3-dicarboxypropyl)-ureido)ethyl)phenyl)amino)-3-oxopropyl)-4-(2-(4-(3-fluoropropyl)-1H-1,2,3-triazol-1-yl)acetamido)heptanedioyl)bis(azanediyl))bis(4,1-phenylene))bis(1-carboxyethane-2,1-diyl))bis(azanediyl))bis(carbonyl))bis(azanediyl))dipentanedioic Acid] | 5 | 95% | – |
| O=C(O)CC[C@H](NC(=O)[C@H](CC(=O)O)NC(=O)CCCNC(=O)c1cc(C(=O)NCCCC(=O)N[C@@H](CC(=O)O)C(=O)N[C@@H](CCC(=O)O)C(=O)O)cc([N+](=O)[O-])c1)C(=O)O [P293, (2S,2′S)-2,2′-(((2S,2′S)-2,2′-((4,4′-((5-Nitroisophthaloyl)bis(azanediyl))bis(butanoyl))-bis(azanediyl))bis(3-carboxypropanoyl))bis(azanediyl))dipentanedioic Acid] | – | 45% and 90% | – |
| NCCOCCOCCOCCOCc1cn(-c2cc(C(=O)Nc3ccc(C[C@H](NC(=O)N[C@@H](CCC(=O)O)C(=O)O)C(=O)O)cc3)cc(C(=O)Nc3ccc(C[C@H](NC(=O)N[C@@H](CCC(=O)O)C(=O)O)C(=O)O)cc3)c2)nn1 [P294, (2S,2′S)-2,2′-(((((1S,1′S)-(((5-(4-(13-Amino-2,5,8,11-tetraoxatridecyl)-1H-1,2,3-triazol-1-yl)isophthaloyl)bis(azanediyl))bis(4,1-phenylene))bis(1-carboxyethane-2,1-diyl))-bis(azanediyl))bis(carbonyl))bis(azanediyl))dipentanedioic Acid] | – | 99% | – |
| O=C(O)CC[C@@H](NC(=O)N[C@@H](CCCCNC(=O)OCc1ccccc1)C(=O)O)C(=O)O [P295, (9S,13R)-3,11-Dioxo-1-phenyl-2-oxa-4,10,12-triazapentadecane-9,13,15-tricarboxylic Acid] | – | 45% | – |
| O=C(O)CC[C@H](NC(=O)C[C@@H](NC(=O)CCCCCNC(=O)c1cc(C(=O)NCCCCCC(=O)N[C@H](CC(=O)N[C@@H](CCC(=O)O)C(=O)O)C(=O)O)cc([N+](=O)[O-])c1)C(=O)O)C(=O)O [P296, (2S,2′S)-2,2′-(((3R,3′R)-3,3′-((6,6′-((5-nitroisophthaloyl)bis(azanediyl))bis(hexanoyl))-bis(azanediyl))bis(3-carboxypropanoyl))bis(azanediyl))dipentanedioic Acid] | – | 72% | – |
| O=C(O)CC[C@@H](NC(=O)N[C@@H](CCCCNC(=O)c1cc(C(=O)NCCCC[C@H](NC(=O)N[C@H](CCC(=O)O)C(=O)O)C(=O)O)cc(-n2cc(CCCF)nn2)c1)C(=O)O)C(=O)O [P297, (2R,2′R)-2,2′-(((((1S,1′S)-((5-(4-(3-Fluoropropyl)-1H-1,2,3-triazol-1-yl)isophthaloyl)-bis(azanediyl))bis(1-carboxypentane-5,1-diyl))bis(azanediyl))bis(carbonyl))-bis(azanediyl))dipentanedioic Acid] | – | 31% | – |
| O=C(O)CC[C@H](NC(=O)C[C@@H](NC(=O)CCCNC(=O)c1cc(C(=O)NCCCC(=O)N[C@H](CC(=O)N[C@@H](CCC(=O)O)C(=O)O)C(=O)O)cc([N+](=O)[O-])c1)C(=O)O)C(=O)O [P298, (2S,2′S)-2,2′-(((3R,3′R)-3,3′-((4,4′-((5-Nitroisophthaloyl)bis(azanediyl))bis(butanoyl))-bis(azanediyl))bis(3-carboxypropanoyl))bis(azanediyl))dipentanedioic Acid] | – | 88% | – |
| (9S,13S)-9-Carboxy-13-((1-(2-fluoroethyl)-1H-1,2,3-triazol-4-yl)methyl)-3,11-dioxo-1-phenyl-2-oxa-4,10,12-triazatetradecan-14-oic Acid [P187] | – | – | 77 |
| (S)-2-(3-((S)-1-Carboxy-5-(4-(2-fluoroethoxy)benzamido)pentyl)ureido)pentanedioic Acid [P160] | 219 | – | 88 |
